Counter-ions that a name gives are not always drawn.
system: KRAS G12C mutant NCI-H358 cells; test: Cell proliferation inhibition experiment, 3D spheroid, CellTiter-Glo, NCI-H358; format: cell-based, human; details: Homo sapiens, NCI-H358, 120 h, NCI-H358 (KRAS G12C mutant) 3D spheroid, 5 days with compound, CellTiter-Glo; read-out: H358 IC50
Excerpt: Raw materials and instruments: NCI-H358 purchased from ATCC; article number: CRL-5807; batch number: 70010825; A549 purchased from ATCC; article number: CCL-185; batch number: 70007820; RPMI1640 purchased from Gibco; article number: 11875-093; batch number: 2152748; F-12K purchased from Gibco; article number: 21127-022; batch number: 2185853; FBS purchased from Gibco; article number: 10099-141; batch number: 2109290CP; PS purchased from Gibco; article number: 15140-122; batch number: 2145451; Trypsin-EDTApurchased from Gibco; article number: 25200-072; batch number: 2085552; CellTiter Glo working solution purchased from Promega; article number: G9683; batch number: 398478; DMSO purchased from VWR AMRESCO; article number: 0231-500ML; batch number: 18C0656168; 384-well spheroid plate purchased from Corning; article number: 3830; batch number: 27519032; white opaque 384-well plate purchased from Corning; article number: 3570; batch number: 26819023; microplate reader purchased from PerkinElmer; model: Envision MLD2105-0020; equipment number 1050369.
NCI-H358 is a KRAS G12C mutant human non-small cell lung cancer cell line, cultured in 10% FBS RPMI-1640+1% PS culture medium; and A549 is a KRAS G12S mutant human lung adenocarcinoma cell line, cultured in 10% FBS F-12K+1% PS culture medium. Cells at logarithmic growth stage were taken, digested with trypsin-EDTA, then collected and counted. H358 was adjusted to 1.8 E4 cells/mL with 2% FBS RPMI-1640 culture medium, and A549 was adjusted to 8.9 E3 cells/mL with 2% FBS F-12K culture medium; 800 (45 μL) H358 or 400 (45 μL) A549 were inoculated respectively in a 384-well spheroid plate and cultured overnight to establish a 3D cell model. A 3.16-fold gradient concentration stock solution of 1000× compound was prepared with DMSO, and diluted 100-fold to 10× compound stock solution with 2% FBS culture medium. On the second day after cell inoculation, 5 μL of 10× compound stock solution was added to each cell culture well, with a final concentration of 1× and a DMSO content of 0.1%. DMSO was used as experimental control (control), and 2% FBS culture medium was used as blank control (blank). After 5 days of compound cell culture, 25 μL of CellTiter-Glo working solution was added to each well, mixed well at 400 rpm and incubated for 30 minutes. After standing at room temperature for 30 minutes, 40 μL of the mixed solution was transferred to a white opaque 384-well plate, and the luminescence chemiluminescence value was read with a microplate reader. The cell proliferation inhibition rate IR (%)=(RLU control -RLU compound)/(RLU control -RLU blank) x100% was calculated. The gradient dilution concentration of the compound and the corresponding cell proliferation inhibition rate were fitted by Prism 6 four-parameter method, and the IC50 value was calculated. The inhibitory activity of the compounds prepared in the above embodiments of the present disclosure on KRAS G12C mutant NCI-H358 cells was 0.0001 μM to 0.5 μM; the inhibitory activity of some compounds on KRAS G12C mutant NCI-H358 cells was 0.001 μM to 0.1 μM or 0.001 μM to 0.05 μM.

SMILES | IC50
C=CC(=O)N1CCN2C(=O)C3=C(OC[C@H]2C1)C(C)=C(c1c(O)cccc1F)CN3N1C[C@@H](O)CC1(C)C (single isomer, unassigned) [Z336-1] | 43 nM
C=CC(=O)N1CCN2C(=O)c3c(N4Cc5cnn(C)c5[C@@H]4C)nc(-c4c(O)cccc4F)c(Cl)c3OC[C@H]2C1 (single isomer, unassigned) [Z292S, trifluoroacetate] | 37.3 nM
C=CC(=O)N1CCN2C(=O)c3c(N4CCN5CCC[C@H]5C4)nc(-c4c(O)cccc4F)c(Cl)c3OC[C@H]2C1 [Z317-1, (6aR)-8-acryloyl-4-chloro-3-(2-fluoro-6-hydroxyphenyl)-1-((S)-hexahydropyrrolo[1,2-a]pyrazin-2(1H)-yl)-6,6a,7,8,9,10-hexahydro-12H-pyrazino[2,1-c]pyrido[3,4-f][1,4]oxazepin-12-one] | 54.1 nM
C=CC(=O)N1CCN2C(=O)c3c(N4[C@H](C)COC[C@@H]4C)nc(-c4c(O)cccc4F)c(Cl)c3OC[C@H]2C1 [Z252-1, (6aR)-8-acryloyl-1-(3R,5S-dimethylmorpholino)-4-chloro-3-(2-fluoro-6-hydroxyphenyl)-6,6a,7,8,9, 10-hexahydro-12H-pyrazino[2,1-c]pyrido[3,4-f][1,4]oxazepin-12-one] | 144 nM
C=CC(=O)N1CCN2C(=O)c3c(N4C[C@H](C)O[C@@H](C)C4)nc(-c4c(O)cccc4F)c(Cl)c3OC[C@H]2C1 [Z248-1, (6aR)-8-acryloyl-1-((2S,6S)-2,6-dimethylmorpholino)-4-chloro-3-(2-fluoro-6-hydroxyphenyl)-6,6a,7,8,9,10-hexahydro-12H-pyrazino[2,1-c]pyrido[3,4-f][1,4]oxazepin-12-one] | 234 nM
C=CC(=O)N1CCN2C(=O)c3c(N4CCC[C@]4(C)CO)nc(-c4c(O)cccc4F)c(Cl)c3OC[C@H]2C1 [Z279-1] | 185 nM
C=CC(=O)N1CCN2C(=O)c3c(N4CCN(C5COC5)C[C@H]4C)nc(-c4c(O)cccc4F)c(Cl)c3OC[C@H]2C1 (single isomer, unassigned) [Z239-2] | 55.8 nM
C=CC(=O)N1CCN2C(=O)c3c(N4C[C@H](O)CC4(C)C)nc(-c4c(O)cccc4F)c(F)c3OC[C@H]2C1 (single isomer, unassigned) [Z256-2] | 27 nM
C=CC(=O)N1CCN2C(=O)c3c(N4Cc5nn(C)cc5[C@H]4C)nc(-c4c(O)cccc4F)c(Cl)c3OC[C@H]2C1 (single isomer, unassigned) [Z345-1] | 45.2 nM

Now from value to molecule:

IC50 | SMILES
128 nM | C=CC(=O)N1CCN2C(=O)c3c(N4C(C)COCC4C)nc(-c4c(O)cccc4F)c(Cl)c3OC[C@H]2C1 (stereo partly drawn) [Z252, (6aR)-8-acryloyl-1-(3,5-dimethylmorpholino)-4-chloro-3-(2-fluoro-6-hydroxyphenyl)-6,6a,7,8,9,10-hexahydro-12H-pyrazino[2,1-c]pyrido[3,4-f][1,4]oxazepin-12-one]
161 nM | C=CC(=O)N1CCN2C(=O)c3c(C4=CCN(C)CC4C)nc(-c4c(O)cccc4F)c(Cl)c3OC[C@H]2C1 (stereo partly drawn) [Z304, (6aR)-8-acryloyl-4-chloro-1-(1,3-dimethyl-1,2,3,6-tetrahydropyridin-4-yl)-3-(2-fluoro-6-hydroxyphenyl)-6,6a,7,8,9,10-hexahydro-12H-pyrazino[2,1-c]pyrido[3,4-f]oxazepin-12-one]
137 nM | C=CC(=O)N1CCN2C(=O)c3c(N4CCOCC4)nc(-c4c(O)cccc4F)c(F)c3OC[C@H]2C1 [Z329, (6aR)-8-acryloyl-1-(morpholino)-4-fluoro-3-(2-fluoro-6-hydroxyphenyl)-6,6a,7,8,9,10-hexahydro-12H-pyrazino[2,1-c]pyrido[3,4-f][1,4]oxazepin-12-one]
285 nM | C=CC(=O)N1CCN2C(=O)c3c(N4CCOC(C)(C)C4)nc(-c4c(C)ccc5[nH]ncc45)c(F)c3OC[C@H]2C1 [Z238, (6aR)-8-acryloyl-1-(2,2-dimethylmorpholino)-4-fluoro-3-(5-methyl-1H-indazol-4-yl)-6,6a,7,8,9,10-hexahydro-12H-pyrazino[2,1-c]pyrido[3,4-f][1,4]oxazepin-12-one]
19 nM | C=CC(=O)N1CCN2C(=O)c3c(N4CCOCC45CCC5)nc(-c4c(O)cccc4F)c(Cl)c3OC[C@H]2C1 [Z90, (6aR)-8-acryloyl-4-chloro-3-(2-fluoro-6-hydroxyphenyl)-1-(8-oxa-5-azaspiro[3.5]nonan-5-yl)-6,6a,7,8,9,10-hexahydro-12H-pyrazino[2,1-c]pyrido[3,4-f][1,4]oxazepin-12-one]
31.3 nM | C=CC(=O)N1CCN2C(=O)c3c(N4CCOCC4)nc(-c4nc(N)ccc4C(F)(F)F)c(Cl)c3OC[C@H]2C1 [Z267]
44.9 nM | C=CC(=O)N1CCN2C(=O)c3c(OCC4N(C)CCC4(C)C)nc(-c4c(O)cccc4F)c(Cl)c3OC[C@H]2C1 (stereo partly drawn) [Z110, (6aR)-8-acryloyl-4-chloro-1-((1,3,3-trimethyltetrahydropyrrol-2-yl)methoxy)-3-(2-fluoro-6-hydroxyphenyl)-6,6a,7,8,9,10-hexahydro-12H-pyrazino[2,1-c]pyrido[3,4-f][1,4]oxazepin-12-one]
26.3 nM | C=CC(=O)N1CCN2C(=O)c3c(N4CCCC(C)C4C)nc(-c4c(O)cccc4F)c(Cl)c3OC[C@H]2C1 (stereo partly drawn) [Z99, (6aR)-8-acryloyl-4-chloro-1-(2,3-dimethylpiperidin-1-yl)-3-(2-fluoro-6-hydroxyphenyl)-6,6a,7,8,9,10-hexahydro-12H-pyrazino[2,1-c]pyrido[3,4-f][1,4]oxazepin-12-one]
291 nM | C=CC(=O)N1CCN2C(=O)c3c(N4CCC45CCC5)nc(-c4c(O)cccc4F)c(Cl)c3OC[C@H]2C1 [Z309, (6aR)-8-acryloyl-4-chloro-3-(2-fluoro-6-hydroxyphenyl)-1-(1-azaspiro[3.3]heptan-1-yl)-6,6a,7,8,9,10-hexahydro-12H-pyrazino[2,1-c]pyrido[3,4-f][1,4]oxazepin-12-one]
32 nM | C=CC(=O)N1CCN2C(=O)c3c(N4CCOC(C)(C)C4)nc(-c4c(O)cccc4F)c(F)c3OC[C@H]2C1 [Z255, (6aR)-8-acryloyl-1-(2,2-dimethylmorpholino)-4-fluoro-3-(2-fluoro-6-hydroxyphenyl)-6,6a,7,8,9,10-hexahydro-12H-pyrazino[2,1-c]pyrido[3,4-f][1,4]oxazepin-12-one]
35 nM | C=CC(=O)N1CCN2C(=O)c3c(N4C[C@@H](C)N(C)[C@@H](C)C4)nc(-c4c(O)cccc4F)c(Cl)c3OC[C@H]2C1 [Z246, (6aR)-8-acryloyl-4-chloro-3-(2-fluoro-6-hydroxyphenyl)-1-((3S,5R)-3,4,5-trimethylpiperazin-1-yl)-6,6a,7,8,9,10-hexahydro-12H-pyrazino[2,1-c]pyrido[3,4-f][1,4]oxazepin-12-one]
69 nM | C=CC(=O)N1CCN2C(=O)c3c(cc(-c4c(O)cccc4F)nc3N3CCOC(C)(C)C3)OC[C@H]2C1 [Z263, (6aR)-8-acryloyl-1-(2,2-dimethylmorpholino)-3-(2-fluoro-6-hydroxyphenyl)-6,6a,7,8,9,10-hexahydro-12H-pyrazino[2,1-c]pyrido[3,4-f][1,4]oxazepin-12-one]

— US20230203060A1 (GENFLEET THERAPEUTICS (SHANGHAI) INC., priority 2020, published 2023)
